In patent publication US20210228523A1, “MODULATORS OF SESTRIN-GATOR2 INTERACTION AND USES THEREOF” (Navitor Pharmaceuticals, Inc., priority 2017, published 2021):

Columns and labels:
[1] = tested on: Male Sprague Dawley rats; experiment: Novelty Suppressed Feeding Test (NSFT) with home cage feeding control; format: in vivo, rat; conditions: Example I; Ket 10 mg/kg i.p. on alternate days (day 0, 2, 4, 6); day 9
Protocol: Behavioral Analysis Using the Novelty Suppressed Feeding Test (NSFT): The NSFT was conducted as previously described (Warner-Schmidt, J. L. & Duman, R. S. PNAS 104(11): 4647-52 (2007)). Rats were fasted in their home cages for 20 hr and then placed in a Plexiglas open field (76.5 cm×76.5 cm×40 cm) with a small amount of food in the center. Animals were allowed to explore the open field for 8 min and the latency to feed (s) was recorded.
Chronic Unpredictable Stress (CUS) Conditions: Rats were exposed to a variable sequence of 12 unpredictable stressors, preventing habituation as described (Li, N. et al., Biol Psychiatry 69(8): 754-61 (2011)). The following twelve stressors were applied (2 per day, for 25 days): cage rotation, light on, light off, cold stress, isolation, swim stress, food and water deprivation, wet bedding, stroboscope, cage tilt, odor exposure and group housing. The animals in non-stressed (NS) groups were housed normally without the application of external stressors. Both NS and CUS rats were handled and weighed weekly.
Study Design. Thirty-two (32) male Sprague Dawley Male rats weighing between 175 and 200 g were randomized into 4 study groups (n=8/treatment group), following a 5-day acclimation period. On study day 0, rats received a single dose of either saline (Sal) or ketamine (Ket) in Groups 1 and 2, respectively, by intraperitoneal injection (i.p.). The rats in Group 3 and 4 received a single dose of the NV-5138 vehicle (Veh, 0.5% Methylcellulose/0.1% Tween-80) or NV-5138 (160 mg/kg), respectively, by oral gavage. All rats were subjected to the FUST on day 1, 24 hrs after dosing. On day 2, 48 hrs after dosing, the LMA of all rats was measured in an open field. Rats were then fasted for 20 hrs and subjected to the NSFT, 72 hrs post-dose.
Study Design: Fifty-six (56) male rats weighing between 175 and 200 g were randomized into 4 study groups (n=14/group), following a 5-day acclimation period. On study day minus 20, two groups of rats were subjected to CUS for 25 days and two groups of rats were housed normally serving as the NS group. On the day 21 of the CUS protocol, rats received a single dose of either Veh or NV-5138 (160 mg/kg) by oral gavage (day 0). The SPT and NSFT were performed 24 and 48 hrs post-administration (days 1 and 2), respectively. Upon completion of the behavioral tests, after 25 days of the CUS protocol a second dose of NV-5138 or Veh was administered on day 5 and rats were sacrificed 24 hrs later by conscious decapitation. Crude synaptosomes were prepared from the PFC and the synaptic proteins, GluR1 and PSD95 were quantitated by WB.
Study Design. Twenty (20) male rats weighing between 175 and 200 g were randomized into 3 study groups (n=6-7/group), following a 5-day acclimation period. All rats were surgically implanted with bilateral IT cannulas in the PFC 2 weeks prior to dosing. […] Thirty minutes following the intrathecal infusions, either NV-5138 vehicle (Veh-NV, 0.5% methylcellulose/0.1% Tween-80) or NV-5138 (160 mg/kg) was administered by oral gavage. Each treatment group was assessed at the designated time following oral dosing in FST 24 hrs (day 1) LMA 48 hrs (day 2) and the NSFT 72 hrs (day 3 following a 20 hr period of fasting). LMA was measured to rule out overall changes in generally locomotor activity. The study design is presented in Table 11 with timeline of surgical procedures, test article administration and behavioral tests is provided in FIG. 20
Study Design. Forty-eight (48) male rats weighing between 175 and 200 g were randomized into 6 study groups (n=8/group), following a 5-day acclimation period. A single dose of all test articles was administered on day 0 and the behavioral tests were performed 3, 7 and 10 days later. Groups 1 and 2 were dosed on day 0 with NV-5138 (160 mg/kg by oral gavage) and Ket (10 mg/kg by i.p. injection), respectively and subjected to a FST on day 3. […]

[2] = tested on: marmosets (Callithrix jacchus); experiment: Marmoset Human Threat Test (HTT); format: in vivo; conditions: Example J, ketamine 0.3 mg/kg i.m.
Description: Marmoset Human Threat Test (HTT): Marmosets were challenged by the presence of a human observer over a long period of time on a regular basis. Such chronic stimulation is known to increase plasma cortisol and the subsequent increase in hypothalamic-pituitary-adrenal function contributed to the pathophysiology of depressive illness.
Study Design: Thirty-six (36) marmosets (Callithrix jacchus) were paired and divided randomly divided into treatment groups. Twenty-four hours before the Human Threat Test (HTT) animals were treated with vehicle, ketamine (0.3 mg/kg; i.m.) or NV-5138 (160 mg/kg; p.o.). The following day, the same animals were treated with either vehicle (s.c.) or chloriazepoxide (1 mg/kg; s.c.). The animals were then monitored for the number of threat postures over a two (2) minutes period with the presence of a human observer. Locomotor activity was monitored over the same period, as measured by the number of jumps observed.

[3] = tested on: point mutant form of Sestrin2 unable to bind leucine; experiment: ILBA with Flag-tagged point mutant Sestrin2; format: binding, human
Protocol: This assay was also performed in cultured human cells over-expressing Sestrin2 N-terminally fused to a Flag tag. In this version of the assay, the procedure remained the same, but immunoblotting was performed with a mouse anti-Flag antibody (#F3165, SIGMA).

[4] = molecular target: T1, Sestrin2 (Homo sapiens, UniProt P58004); experiment: Indirect ligand binding assay (ILBA, Method 7), immunoprecipitation with CST anti-Sestrin2 antibody; design: endogenous in cells; host or cells: unnamed human cell line (crude lysate after 1 h amino acid starvation); conditions: crude lysate of amino acid-starved human cell line; 1 hour incubation
T1 sequence (P58004 1-480): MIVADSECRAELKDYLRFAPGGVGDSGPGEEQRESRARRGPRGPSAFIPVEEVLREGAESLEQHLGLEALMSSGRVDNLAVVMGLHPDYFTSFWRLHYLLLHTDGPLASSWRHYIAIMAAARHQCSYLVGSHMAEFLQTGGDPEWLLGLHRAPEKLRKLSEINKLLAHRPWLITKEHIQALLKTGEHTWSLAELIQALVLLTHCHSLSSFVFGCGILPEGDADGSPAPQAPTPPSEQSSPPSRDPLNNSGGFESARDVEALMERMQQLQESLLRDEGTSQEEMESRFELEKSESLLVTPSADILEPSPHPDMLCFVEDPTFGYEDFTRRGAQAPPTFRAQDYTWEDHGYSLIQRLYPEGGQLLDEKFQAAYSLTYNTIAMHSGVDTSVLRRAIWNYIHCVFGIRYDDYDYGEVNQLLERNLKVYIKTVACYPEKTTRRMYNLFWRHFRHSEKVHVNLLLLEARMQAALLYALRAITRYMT
Protocol: Conversely, compounds that destabilized Sestrin2 as measured by thermal shift assay increased the affinity of the CST antibody for non-denatured Sestrin2. […] In one version, the assay was performed with crude lysate generated from a human cell line after a 1-hour period of amino acid starvation (cells are lysed in 1% Triton, 10 mM beta-glycerol phosphate, 10 mM sodium pyrophosphate, 40 mM HEPES [pH 7.4], 150 mM NaCl and 2.5 mM MgCl2). […] After compound incubation, samples were subjected to immunoprecipitation with the CST anti-Sestrin2 antibody for 1.5 hours followed by a 30-minute incubation with protein-A sepharose as described in L. Chantranupong, et al., Cell Reports 9:1-8 (2014). The sepharose conjugated antibody-protein complex was precipitated via centrifugation and the flow-through was subjected to a second round of immunoprecipitation with a rabbit polyclonal anti-Sestrin2 antibody (Protein Tech, #10795-1-AP) to determine that total Sestrin2 protein levels between samples were equal. SDS-PAGE was performed with the immunoprecipitation samples followed by western-blot with the mouse monoclonal anti-Sestrin2 antibody from SIGMA (cat #WH0083667M3). […] This version of the assay also measured increased instability of Sestrin2 induced by incubation with compounds.

CNC1(c2ccccc2Cl)CCCCC1=O (centres unmarked) [Ketamine, reference compound]
NSFT [1]: significant effects
animals that developed mild emesis ([2]; half of the animals (6 out of the 12 dosed)): 6 animals
HTT, number of threat postures ([2]; twenty-four hours after acute administration): induces an anxiolytic/antidepressant-like profile

CC(C)C[C@H](N)C(=O)O [leucine]
decrease in affinity of the CST antibody upon ligand binding [3]: not observed
decrease in intensity of the Sestrin2 band (immunoprecipitated with CST anti-Sestrin2 antibody) [4]: ≥ 50%
